Assay type in all cases: biochemical
Assay [1] addresses T1, recombinant human VAP-1 (Homo sapiens, UniProt Q16853).
T1 construct: purchased R&D systems
T1 sequence (Q16853 1-763): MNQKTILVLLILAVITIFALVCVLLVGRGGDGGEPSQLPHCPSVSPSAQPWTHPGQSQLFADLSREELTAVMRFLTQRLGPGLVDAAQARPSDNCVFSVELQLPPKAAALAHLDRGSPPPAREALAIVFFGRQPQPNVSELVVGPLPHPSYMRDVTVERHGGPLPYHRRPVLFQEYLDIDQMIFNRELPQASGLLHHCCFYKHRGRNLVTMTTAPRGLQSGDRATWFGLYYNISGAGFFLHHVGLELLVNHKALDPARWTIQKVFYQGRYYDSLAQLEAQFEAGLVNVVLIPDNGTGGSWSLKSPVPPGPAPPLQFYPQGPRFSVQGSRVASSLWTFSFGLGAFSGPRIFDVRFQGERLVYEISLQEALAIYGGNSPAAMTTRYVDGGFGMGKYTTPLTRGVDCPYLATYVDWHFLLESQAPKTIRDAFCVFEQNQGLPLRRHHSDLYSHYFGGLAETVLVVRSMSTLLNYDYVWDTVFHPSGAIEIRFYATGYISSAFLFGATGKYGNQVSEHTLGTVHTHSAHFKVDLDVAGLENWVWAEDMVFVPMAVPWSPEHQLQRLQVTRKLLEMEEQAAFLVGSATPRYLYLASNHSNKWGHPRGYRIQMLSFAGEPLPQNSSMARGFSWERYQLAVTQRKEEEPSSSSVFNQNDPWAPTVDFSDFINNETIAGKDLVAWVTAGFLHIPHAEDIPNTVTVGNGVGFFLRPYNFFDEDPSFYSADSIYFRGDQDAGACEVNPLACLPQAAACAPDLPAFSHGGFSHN
Put plainly: Activity on recombinant human VAP-1, HRP-coupled Amplex Red hydrogen peroxide assay, benzylamine substrate. The conditions noted are these: 30 min incubation at 37° C., 1 mM benzylamine, read-out: Inhibitory Activity (IC50, nM) human VAP-1. The method, then: (§1) The compounds according to the present technology were evaluated in terms of activity on recombinant human VAP-1 (R&D systems) by measuring the level of hydrogen peroxide in horseradish peroxidase (HRP)-coupled reaction using Amplex Red Hydrogen Peroxide Assay Kit (Molecular Probes, Invitrogen, USA). The experiment was carried out at room temperature using benzylamine as a substrate. In the HRP-coupled reaction, hydrogen peroxide oxidation of 10-acetyl-3,7-dihydroxyphenoxazine (Amplex Red reagent) produces resorufin, which is a highly fluorescent compound. Briefly, the test compound was dissolved in dimethyl sulfoxide (DMSO) at a concentration of 20 mM. The dose-response assessment was made by 1:3 serial dilution in DMSO, thereby creating a 8 point curve. The concentration of the upper part was controlled according to the efficacy of the compounds, followed by dilution with a reaction buffer solution to obtain a final DMSO concentration of less than 1%. To each well of a 96 black well plate, human VAP-1 purified in 50 mM sodium phosphate buffer solution (pH7.4) was added. The test compounds dissolved in DMSO were incubated with the human VAP-1 enzymes at 37° C. for 30 minutes. After 30-minute incubation, each well was added with a reaction mixture containing 200 uM Amplex Red reagent prepared from 50 mM sodium phosphate buffer solution (pH 7.4), 1 mM benzylamine, and 1 U/mL HRP. Fluorescence intensity was measured at several time points during 1-2 hours using a microplate reader (Flexstation3, Molecular Devices) under the wavelength condition exciting at 544 nm and reading the emission at 590 nm. The inhibitory effect of the compounds was measured as a decrease (%) in the signal rate as compared to the control group without any inhibitor (only diluted DMSO). Data was fixed to a logistic model with four variables and IC50 value was calculated using GraphPad Prism program.

The target in assay [2] is T2, recombinant human MAO-A (monoamine oxidase-A) (Homo sapiens, UniProt P21397).
T2 construct: purchased Sigma-Aldrich
T2 sequence (P21397 1-527): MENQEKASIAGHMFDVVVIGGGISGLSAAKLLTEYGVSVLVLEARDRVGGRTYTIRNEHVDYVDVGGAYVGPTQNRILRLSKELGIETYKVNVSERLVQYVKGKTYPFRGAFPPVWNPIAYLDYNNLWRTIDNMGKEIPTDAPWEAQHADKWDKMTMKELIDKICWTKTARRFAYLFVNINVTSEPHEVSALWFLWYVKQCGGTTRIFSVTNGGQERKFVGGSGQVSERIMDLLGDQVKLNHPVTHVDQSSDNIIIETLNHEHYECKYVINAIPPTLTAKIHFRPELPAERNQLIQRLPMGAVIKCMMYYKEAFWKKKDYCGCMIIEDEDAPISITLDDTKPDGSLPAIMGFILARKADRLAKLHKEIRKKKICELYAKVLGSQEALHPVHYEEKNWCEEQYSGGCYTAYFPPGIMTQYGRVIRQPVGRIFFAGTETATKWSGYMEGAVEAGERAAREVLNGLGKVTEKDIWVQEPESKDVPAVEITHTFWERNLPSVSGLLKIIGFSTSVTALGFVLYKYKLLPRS
Put plainly: Activity on recombinant human MAO-A, method similar to VAP-1 assay, 0.5 mM tyramine substrate. As to conditions: read-out: Inhibitory Activity (IC50, nM) MAO-A. The method, then: as §1
(§2) In addition, the compounds according to the present technology were evaluated in terms of activity on a recombinant human MAO-A (monoamine oxidase-A, Sigma-Aldrich) and a recombinant human MAO-B(monoamine oxidase-B, Sigma-Aldrich) by using as substrates, 0.5 mM tyramine and 1 mM benzylamine, respectively, with a method similar to the activity evaluation method for recombinant human VAP-1. The compounds according to the present technology were also evaluated in terms of activity on a recombinant human DAO (diamine oxidase, R&D systems) by using as a substrate 1 mM putrescine with a method similar to the activity evaluation method for recombinant human VAP-1.

For assay [3], the target named is T3, recombinant human MAO-B (monoamine oxidase-B) (Homo sapiens, UniProt P27338).
T3 construct: purchased Sigma-Aldrich
T3 sequence (P27338 1-520): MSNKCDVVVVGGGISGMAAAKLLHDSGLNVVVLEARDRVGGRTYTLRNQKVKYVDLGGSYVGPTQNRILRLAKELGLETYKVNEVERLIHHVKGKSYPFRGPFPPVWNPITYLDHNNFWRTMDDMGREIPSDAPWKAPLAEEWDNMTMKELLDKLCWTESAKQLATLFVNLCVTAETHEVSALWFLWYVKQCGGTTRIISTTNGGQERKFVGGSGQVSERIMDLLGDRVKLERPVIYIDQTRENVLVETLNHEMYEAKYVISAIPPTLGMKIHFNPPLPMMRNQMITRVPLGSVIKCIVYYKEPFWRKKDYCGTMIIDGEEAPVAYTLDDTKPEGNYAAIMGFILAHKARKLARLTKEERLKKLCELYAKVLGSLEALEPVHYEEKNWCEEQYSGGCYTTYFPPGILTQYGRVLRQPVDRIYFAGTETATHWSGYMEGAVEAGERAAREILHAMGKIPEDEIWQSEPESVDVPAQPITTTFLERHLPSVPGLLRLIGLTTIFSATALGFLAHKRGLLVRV
As to the kind of experiment: Activity on recombinant human MAO-B, method similar to VAP-1 assay, 1 mM benzylamine substrate. As to conditions: read-out: Inhibitory Activity (IC50, nM) MAO-B. The procedure:
as §1, §2

Assay [4] deals with T4, recombinant human DAO (diamine oxidase) (Homo sapiens, UniProt P19801).
T4 construct: purchased R&D systems
T4 sequence (P19801 20-751): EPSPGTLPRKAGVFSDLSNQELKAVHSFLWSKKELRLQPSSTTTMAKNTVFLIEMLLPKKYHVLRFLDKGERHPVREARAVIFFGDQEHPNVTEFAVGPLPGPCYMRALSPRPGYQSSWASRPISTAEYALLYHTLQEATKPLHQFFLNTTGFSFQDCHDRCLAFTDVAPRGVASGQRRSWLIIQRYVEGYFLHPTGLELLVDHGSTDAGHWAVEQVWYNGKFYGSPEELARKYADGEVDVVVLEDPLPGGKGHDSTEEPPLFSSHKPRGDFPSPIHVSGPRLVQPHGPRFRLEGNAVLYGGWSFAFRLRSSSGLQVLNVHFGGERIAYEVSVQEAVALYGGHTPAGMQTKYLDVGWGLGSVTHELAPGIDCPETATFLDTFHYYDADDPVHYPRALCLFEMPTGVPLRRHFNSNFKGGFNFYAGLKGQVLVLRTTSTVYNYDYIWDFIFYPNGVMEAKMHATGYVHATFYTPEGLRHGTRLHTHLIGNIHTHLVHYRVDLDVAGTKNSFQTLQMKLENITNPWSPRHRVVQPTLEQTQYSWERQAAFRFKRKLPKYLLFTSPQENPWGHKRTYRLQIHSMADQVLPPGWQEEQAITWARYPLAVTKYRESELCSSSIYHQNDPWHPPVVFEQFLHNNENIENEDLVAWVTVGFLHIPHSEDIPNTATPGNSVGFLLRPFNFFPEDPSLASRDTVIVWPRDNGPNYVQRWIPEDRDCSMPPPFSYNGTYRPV
As to the kind of experiment: Activity on recombinant human DAO, method similar to VAP-1 assay, 1 mM putrescine substrate. The conditions noted are these: read-out: Inhibitory Activity (IC50, nM) DAO. The method, then: as §1, §2

Structures can show the parent of a compound that is named as a salt.

For orientation: IC50 means the concentration needed to halve the response being measured. Regarding `NC/C(=C\F)Cn1nc2cc(-c3ccnc4[nH]ccc34)ccn2c1=O` [Example 40, 2-[(2E)-2-(aminomethyl)-3-fluoroprop-2-en-1-yl]-7-(1H-pyrrolo[2,3-b]pyridin-4-yl)[1,2,4]triazolo[4,3-a]pyridin-3(2H)-one hydrochloride], the IC50 in assay [1] is 0.3 nM; in assay [2], over 100000 nM; in assay [3], 760 nM; in assay [4], 9.4 nM.

With `NCC(Cn1nc2cc(C#Cc3ccc4c(c3)NCCO4)ccn2c1=O)=C(F)F` [Example 59, 2-[2-(aminomethyl)-3,3-difluoro-allyl]-7-[2-(3,4-dihydro-2H-1,4-benzoxazin-6-yl)ethynyl]-[1,2,4]triazolo[4,3-a]pyridin-3-one ditrifluoroacetate], the IC50 in assay [1] was 1.8 nM; in assay [2] it was over 100000 nM; in assay [3], 2700 nM; in assay [4] it was 9000 nM.

Regarding `NC/C(=C\F)Cn1nc2cc(-c3cccc(-c4noc(C5CC5)n4)c3)ccn2c1=O` [Example 28, 2-[(2E)-2-(aminomethyl)-3-fluoroprop-2-en-1-yl]-7-[3-(5-cyclopropyl-1,2,4-oxadiazol-3-yl)phenyl][1,2,4]triazolo[4,3-a]pyridin-3(2H)-one hydrochloride], the IC50 in assay [1] was 0.5 nM; in assay [2], over 100000 nM; in assay [3], 290 nM; in assay [4], 5 nM.

On to `CCn1cc(-c2ccn3c(=O)n(CC(CN)=C(F)F)nc3c2)cn1` [Example 55, 2-[2-(aminomethyl)-3,3-difluoro-allyl]-7-(1-ethylpyrazol-4-yl)-[1,2,4]triazolo[4,3-a]pyridin-3-one trifluoroacetate], for which the IC50 in assay [1] was 0.4 nM; in assay [2], over 100000 nM; in assay [3], 5100 nM; in assay [4], 1800 nM.

Consider `NCC(Cn1nc2cc(C#Cc3cnc4c(c3)OCCN4)ccn2c1=O)=C(F)F` [Example 61, 2-[2-(aminomethyl)-3,3-difluoro-allyl]-7-[2-(3,4-dihydro-2H-pyrido[3,2-b][1,4]oxazin-7-yl)ethynyl]-[1,2,4]triazolo[4,3-a]pyridin-3-one ditrifluoroacetate], for which the half-maximal inhibitory concentration (IC50) in assay [1] was 0.6 nM; in assay [2], over 100000 nM; in assay [3] it was 37000 nM; in assay [4], 220 nM.

Regarding `NC/C(=C\F)Cn1nc2cc(-c3ccc(-c4ccon4)cc3)ccn2c1=O` [Example 25, 2-[(2E)-2-(aminomethyl)-3-fluoroprop-2-en-1-yl]-7-[4-(1,2-oxazol-3-yl)phenyl][1,2,4]triazolo[4,3-a]pyridin-3(2H)-one hydrochloride], the IC50 in assay [1] was 0.2 nM; in assay [2] it was 18000 nM; in assay [3] it was 220 nM; in assay [4] it was 9.1 nM.

Regarding `NCC(Cn1nc2cc(C#Cc3ccc(N4CCOCC4)nc3)ccn2c1=O)=C(F)F` [Example 58, 2-[2-(aminomethyl)-3,3-difluoro-allyl]-7-[2-(6-morpholino-3-pyridyl)ethynyl]-[1,2,4]triazolo[4,3-a]pyridin-3-one trifluoroacetate], the IC50 in assay [1] was 0.3 nM; in assay [2], over 100000 nM; in assay [3], 5300 nM; in assay [4], 34 nM.

With `CN1CCOc2cc(C#Cc3ccn4c(=O)n(CC(CN)=C(F)F)nc4c3)ccc21` [Example 63, 2-[2-(aminomethyl)-3,3-difluoro-allyl]-7-[2-(4-methyl-2,3-dihydro-1,4-benzoxazin-7-yl)ethynyl]-[1,2,4]triazolo[4,3-a]pyridin-3-one trifluoroacetate], the IC50 in assay [1] is 2.2 nM; in assay [2] it was over 100000 nM; in assay [3], over 100000 nM; in assay [4], 320 nM.

`Cn1cc(C#Cc2ccn3c(=O)n(CC(CN)=C(F)F)nc3c2)cn1` [Example 56, 2-[2-(aminomethyl)-3,3-difluoro-allyl]-7-[2-(1-methylpyrazol-4-yl)ethynyl]-[1,2,4]triazolo[4,3-a]pyridin-3-one trifluoroacetate]: the concentration for half-maximal inhibition (IC50) is 1 nM in assay [1], over 100000 nM in assay [2], 2500 nM in assay [3] and 6300 nM in assay [4].
